Data taken from patent US20110189280A1, “DOSAGE FORM COMPRISING 1-ISOPROPYL-4-HEXAHYDRO-1H-1,4-DIAZEPINE OR A SALT THEREOF” (priority 2008, published 2011).

Test: Gravimetric vapour sorption (GVS) analysis, water sorption/desorption at different relative humidities
Format: physicochemical
Details: across the 0-90% relative humidity range at 25° C. under nitrogen

| SMILES | water adsorbed and/or absorbed, and/or desorbed (GVS), compared with crystalline Form 1 mono-maleate (sample before purification by recrystallisation, data not shown) | water reversibly adsorbed and/or absorbed, and/or desorbed (GVS) |
| --- | --- | --- |
| CC(C)N1CCCN(C(=O)c2ccc(OC3CCOCC3)cc2)CC1.Cl [Drug Preparation Example 1 Part C, 1-isopropyl-4-{[4-(tetrahydro-2H-pyran-4-yloxy)phenyl]carbonyl}hexahydro-1H-1,4-diazepine hydrochloride] | higher quantities of water | – |
| CC(C)N1CCCN(C(=O)c2ccc(OC3CCOCC3)cc2)CC1.O=C(O)/C=C\C(=O)O [Drug Preparation Example 3, 1-Isopropyl-4-{[4-(tetrahydro-2H-pyran-4-yloxy)phenyl]carbonyl}hexahydro-1H-1,4-diazepine mono-maleate salt (crystalline Form 1)] | – | approximately 0.4 % w/w |
